Calls of active or inactive are those of the source. The calls are words filed in the database; no cut-off is given here.
Key:
[1] = AUC (0 to t) in Balb/c mouse at 10 mg/kg, po administered as single dose measured upto 24 hrs by LC-MS/MS analysis; type: ADME, organism-based; parameters: route oral, dose 10 mg/kg, time <=24; details: in vivo
[2] = Oral bioavailability in Balb/c mouse at 10 mg/kg administered as single dose measured upto 24 hrs by LC-MS/MS analysis; type: ADME, organism-based; details: in vivo
Histone deacetylase 1 = Histone deacetylase 1 (Homo sapiens, UniProt Q13547); type: ADME, cell-based, Sf9
[3] = Inhibition of recombinant full length C-terminal His/FLAG-tagged Plasmodium falciparum HDAC1 expressed in baculovirus infected sf9 insect cells using fluorogenic […] as substrate preincubated for 1.5 hrs followed by substrate addition and measured after 30 mins by HDAC-GloI/II assay
[4] = Half life in Balb/c mouse at 2 mg/kg, iv administered as single dose measured upto 24 hrs by LC-MS/MS analysis; type: ADME, organism-based; details: in vivo
Plasmodium falciparum [5] = experiment: Antiplasmodial activity against artemisinin-resistant Plasmodium falciparum 6218 assessed as reduction in parasite survival at 700 nM incubated for 6 hrs followed by compound washout thrice and further cultured in compound free medium for 66 hrs by RSA; type: functional, organism-based
Histone deacetylase 8 = molecular target: T1, Histone deacetylase 8 (Homo sapiens, UniProt Q9BY41); experiment: Inhibition of full length human C-terminal His-tagged HDAC8 expressed in baculovirus infected Sf9 cells using Ac-peptide as substrate preincubated for 15 mins followed by substrate addition and incubated for 120 mins followed by trypsin addition and further incubated for 240 mins
T1 sequence (Q9BY41 whole entry): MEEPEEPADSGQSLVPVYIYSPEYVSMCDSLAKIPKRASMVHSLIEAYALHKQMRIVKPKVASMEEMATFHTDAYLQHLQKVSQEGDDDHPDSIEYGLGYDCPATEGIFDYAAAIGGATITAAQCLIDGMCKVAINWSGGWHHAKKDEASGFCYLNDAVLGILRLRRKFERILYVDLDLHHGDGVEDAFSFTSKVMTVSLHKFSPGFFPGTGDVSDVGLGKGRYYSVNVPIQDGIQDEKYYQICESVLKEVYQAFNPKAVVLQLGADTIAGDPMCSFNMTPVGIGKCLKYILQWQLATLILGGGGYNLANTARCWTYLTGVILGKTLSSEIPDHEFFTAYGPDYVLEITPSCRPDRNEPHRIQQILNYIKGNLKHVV

[6] = Apparent clearance during terminal phase in Balb/c mouse at 5 mg/kg, ip administered as single dose measured upto 24 hrs by LC-MS/MS analysis; type: ADME, organism-based; details: in vivo, 5 mg/kg, 24 h
Plasmodium falciparum [7] = experiment: Inhibition of Plasmodium falciparum HDAC assessed as hyperacetylation of histone H3 at 20 times IC50 incubated for 4 hrs by Western blot analysis
Plasmodium falciparum [8] = experiment: Antiplasmodial activity against artemisinin-resistant ring stage Plasmodium falciparum 6320 infected in human erythrocytes assessed as reduction in parasite growth incubated for 72 hrs by Giemsa staining based light microscopic method; type: functional, organism-based; details: Plasmodium falciparum, 6320, Erythrocyte
[9] = AUC (0 to infinity) in Balb/c mouse at 5 mg/kg, ip administered as single dose measured upto 24 hrs by LC-MS/MS analysis; type: ADME, organism-based; parameters: route intraperitoneal, dose 5 mg/kg, time <=24; details: in vivo
Plasmodium falciparum [10] = experiment: Antiplasmodial activity against Plasmodium falciparum CP286 infected in human erythrocytes assessed as reduction in parasite growth incubated for 72 hrs by Giemsa staining based light microscopic method; type: functional, organism-based; details: CP286, Erythrocyte
[11] = Tmax in Balb/c mouse at 10 mg/kg, po administered as single dose measured upto 24 hrs by LC-MS/MS analysis; type: ADME, organism-based; details: in vivo
Plasmodium falciparum [12] = experiment: Antiplasmodial activity against artemisinin-resistant Plasmodium falciparum 6320 assessed as reduction in parasite survival at 700 nM incubated for 6 hrs followed by compound washout thrice and further cultured in compound free medium for 66 hrs by RSA; type: functional, organism-based
Plasmodium falciparum [13] = experiment: Antiplasmodial activity against artemisinin-resistant Plasmodium falciparum 6218 infected in human erythrocytes assessed as reduction in parasite growth incubated for 72 hrs by Giemsa staining based light microscopic method; type: functional, organism-based; details: Plasmodium falciparum, 6218, Erythrocyte
[14] = molecular target: T2, Protein deacetylase HDAC6 (Homo sapiens, UniProt Q9UBN7); experiment: Inhibition of human HDAC6 using Ac-peptide as substrate preincubated for 15 mins followed by substrate and trypsin addition and further incubated for 60 mins
T2 sequence (Q9UBN7 whole entry): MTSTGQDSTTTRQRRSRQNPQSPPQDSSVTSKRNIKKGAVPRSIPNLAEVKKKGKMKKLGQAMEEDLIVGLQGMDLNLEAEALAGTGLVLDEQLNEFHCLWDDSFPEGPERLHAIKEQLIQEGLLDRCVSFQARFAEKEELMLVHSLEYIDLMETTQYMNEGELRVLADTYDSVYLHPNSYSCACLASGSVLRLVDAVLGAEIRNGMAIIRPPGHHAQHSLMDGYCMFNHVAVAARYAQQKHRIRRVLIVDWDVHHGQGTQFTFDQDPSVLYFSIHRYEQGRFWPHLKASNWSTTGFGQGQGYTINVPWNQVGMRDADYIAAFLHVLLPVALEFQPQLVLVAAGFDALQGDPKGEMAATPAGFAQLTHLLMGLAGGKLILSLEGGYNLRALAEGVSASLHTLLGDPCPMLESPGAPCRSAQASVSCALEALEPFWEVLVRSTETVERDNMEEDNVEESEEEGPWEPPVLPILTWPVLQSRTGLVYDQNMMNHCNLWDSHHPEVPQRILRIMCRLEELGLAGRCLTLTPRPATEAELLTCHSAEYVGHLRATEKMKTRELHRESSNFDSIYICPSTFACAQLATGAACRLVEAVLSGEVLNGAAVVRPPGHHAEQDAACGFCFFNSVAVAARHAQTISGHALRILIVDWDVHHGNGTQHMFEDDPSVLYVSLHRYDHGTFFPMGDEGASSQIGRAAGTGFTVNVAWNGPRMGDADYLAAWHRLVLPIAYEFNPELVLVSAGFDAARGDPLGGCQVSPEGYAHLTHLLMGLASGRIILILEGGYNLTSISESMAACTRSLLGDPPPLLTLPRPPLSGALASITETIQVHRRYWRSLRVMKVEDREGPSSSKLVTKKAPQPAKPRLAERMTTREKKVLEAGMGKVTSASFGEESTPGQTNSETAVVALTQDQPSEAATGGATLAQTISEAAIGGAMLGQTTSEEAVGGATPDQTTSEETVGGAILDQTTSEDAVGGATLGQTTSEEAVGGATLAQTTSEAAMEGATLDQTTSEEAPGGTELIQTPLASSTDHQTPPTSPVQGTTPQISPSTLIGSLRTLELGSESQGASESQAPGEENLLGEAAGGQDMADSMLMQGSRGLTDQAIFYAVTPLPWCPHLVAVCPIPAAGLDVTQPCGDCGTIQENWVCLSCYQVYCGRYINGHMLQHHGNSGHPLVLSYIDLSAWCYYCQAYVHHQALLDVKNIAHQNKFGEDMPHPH

Plasmodium falciparum [15] = experiment: Antimalarial activity against synchronized schizont stage transgenic Plasmodium falciparum 3D7 with C-terminal 3xTY1-fused HDAC1 knockdown assessed as parasite growth inhibition pretreated with glucosamine followed by compound treatment and incubated for 4 hrs followed by compound washout for thrice and subsequent culturing for 68 hrs by SYBR Green 1 staining based analysis; type: functional, organism-based
[16] = Tmax in Balb/c mouse at 5 mg/kg, ip administered as single dose measured upto 24 hrs by LC-MS/MS analysis; type: ADME, organism-based; details: in vivo

Chain of Histone deacetylase 1 (Q13547 whole entry): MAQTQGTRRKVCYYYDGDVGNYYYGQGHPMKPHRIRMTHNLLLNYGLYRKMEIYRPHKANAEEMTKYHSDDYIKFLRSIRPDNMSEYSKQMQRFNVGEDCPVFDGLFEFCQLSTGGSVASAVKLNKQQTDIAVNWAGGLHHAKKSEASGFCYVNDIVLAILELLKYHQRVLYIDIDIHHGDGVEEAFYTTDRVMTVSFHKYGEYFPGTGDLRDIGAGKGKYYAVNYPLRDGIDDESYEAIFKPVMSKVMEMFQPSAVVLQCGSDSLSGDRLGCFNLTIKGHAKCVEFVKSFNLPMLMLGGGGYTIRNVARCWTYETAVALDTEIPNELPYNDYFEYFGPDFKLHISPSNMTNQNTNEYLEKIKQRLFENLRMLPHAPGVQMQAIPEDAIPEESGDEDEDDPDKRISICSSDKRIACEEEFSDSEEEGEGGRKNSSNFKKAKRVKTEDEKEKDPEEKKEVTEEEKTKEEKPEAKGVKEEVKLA

SMILES: Cl.O=C(NO)c1cnc(N2CCC3(CCN(Cc4c[nH]c5ccccc45)C3)CC2)nc1
- AUC(0-t) at 24 h [1]: 2.94 ng·h/mL
- bioavailability [2]: 0.5%
- IC50 (Histone deacetylase 1): 0.58 nM
- IC50 [3]: 0.343 nM
- half-life [4]: 43.2 min
- Activity (Plasmodium falciparum [5]): Active
- IC50 (Histone deacetylase 8): 16 nM
- CLz/F [6]: 567 mL/min/kg
- inhibition (Plasmodium falciparum [7]): Active
- IC50 (Plasmodium falciparum [8]): 2.9 nM
- AUC(0-inf) [9]: 95.1 ng·h/mL
- IC50 (Plasmodium falciparum [10]): 4.26 nM
- Tmax [11]: 15 min
- Activity (Plasmodium falciparum [12]): Active
- IC50 (Plasmodium falciparum [13]): 3 nM
- IC50 [14]: 32 nM
- IC50 (Plasmodium falciparum [15]): 32.3 nM
- Tmax [16]: 15 min
